{"source": "patent US20130108565A1", "about": "“TANNING ENHANCERS AND SELF-TANNING SUBSTANCES” (MERCK PATENT GESELLSCHAFT MIT BESCHRANKTER HAFTUNG, priority 2010, published 2013)", "key": {"[1]": {"system": "B16V mouse melanoma cells", "assay": "B16 V mouse melanoma cell test: melanin concentration after alpha-MSH stimulation", "assay_type": "cell-based", "conditions": "for Relative melanin concentration (%): DMSO (0.1%) + α-MSH 10^-8 M, relative to blank DMSO + α-MSH = 100%", "procedure": "Description of the performance of the B16 V mouse melanoma cell test:\nB16V mouse melanoma cells (manufacturer: DSMZ; Article No.: ACC370) in RPMI medium (Invitrogen, Article No.: 31870), to which 10% of FBS (foetal bovine serum, Invitrogen, Article No: 10499044), 2 mM L-glutamine (Invitrogen, Article No: 25030) and 1 mM sodium pyruvate (Invitrogen, Article No: 11360) had additionally been added (modified RPMI medium), are transferred into a culture bottle and incubated at 37° C. and 5% CO2 for 72 h. The medium is separated off, and the cells are washed with 10 ml of D-PBS (Invitrogen, Article No. 14190) and subsequently filtered off with suction. 1 ml of HyQtase cell detachment solution (Hyclone, Article No. SV30030.01) is added to the cells. The bottle is swirled a number of times, and the HyQtase cell detachment solution is subsequently removed by suction. The cells are then incubated in the incubator at 37° C. and 5% CO2for 5 min. The cells are taken up in the modified RPMI medium (Invitrogen, Article No.: 31870), and the cell count is determined. To this end, the cells are stained with Tryptan Blue and counted in a Neubauer chamber. The cells are subsequently sown out again in the modified RPMI medium in a defined cell count of 80,000 cells per well (6-well clear plate, TCT, PS (Nunc)).\nThe plate is subsequently incubated at 37° C. and 5% CO2 for 24 h, the medium is then removed. 1980 μl of the isomaltulose dilution are subsequently added. For this substance dilution, the isomaltulose is dissolved in DMSO and subsequently filtered through a sterile filter (0.2 μm, Millipore, Article No. SLLG013SL). The solution is then diluted with the modified RPMI medium (in this case the FBS content in the RPMI medium is only 5%) in such a way that the isomaltulose concentration is 1 mM or 5 mM. 20 μl of an alpha-MSH solution in DMSO (alpha-melanocyte-stimulating hormone=alpha-MSH) (DMSO, Sigma, Article No.:D2650) are then added, so that the alpha-MSH concentration in the well is 10^−8 M. The plate is subsequently incubated again at 37° C. and 5% CO2 for 24 h. […]\nAfter the final incubation period, the medium is removed by suction, and the cells are washed with 1000 μl of D-PBS (Invitrogen, Article No. 14190). […] The cell count is subsequently determined. To this end, the cells are stained with Tryptan Blue and counted in a Neubauer chamber. […] 200 μl are then pipetted as quadruple determination (per cup) into a 96-well plate (VWR, Article No. 4100636981), and the absorption at a wavelength of 405 nm is determined. […] The content of melanin can be determined in this way by means of a calibration line.\nThe other values were determined relative to the blank sample with dimethyl sulfoxide (DMSO) and α-MSH, whose measurement was set at 100%"}, "[2]": {"system": "explants from the stomach tissue of a pale-skinned person", "assay": "Ex-vivo study: chromametric colour measurement (L, a, b) of skin explants", "set-up": "species or system human; key to a / b: CIE L*a*b* colour coordinates (Minolta CR-300, D65)", "conditions": "for L / a / b: n=3, listed as P2", "procedure": "12 explants from the stomach tissue of a pale-skinned person (type) having an average diameter of 10 mm are prepared (reference: […]-AB49). The explants are kept in a BEM medium (BIO-EC's explants medium) at 37° C. in a moist atmosphere comprising 5% of CO2. The following samples are tested: (in each case 3 explants), where the solutions of the corresponding substances used comprise 90% of water and 10% of ethanol. […] 2 μl of the respective sample are added to the explants and distributed for the first time (DO), 1 day later (D1), 2 days later (D2), 3 days later (D3) and 4 days later (D4). The colour of the explants is determined chromametrically. The measurements are carried out on addition (DO), on day 1 (D1), on day 5 (D5) and on day 11 (D11). The colour measurements are carried out using a Minolta CR-300 Chroma-meter, and the L, a and b values are read off correspondingly on the instrument. […] A colour area is present here which is viewed at a viewing angle of 2 degrees. This viewing angle is used as standard in the chromametric measurement. • Irradiation source D65, corresponding to daylight • Region of the measurement: 3 mm • Parameters used: L* a* b* The sample is placed on the bearing rail with the epidermis facing downwards. The irradiation is carried out from the underside through the area indicated (3 mm). In the colorimetric determinations <L a b>, the L value determines the contrast of the skin. If the L value drops, the skin appears darker."}, "[3]": {"conditions": "D0 (on addition), single explant values"}, "[4]": {"conditions": "D1, 2 μl sample applied D0-D4, single explant values"}, "[5]": {"conditions": "D5, 2 μl sample applied D0-D4, single explant values"}, "[6]": {"conditions": "D11, 2 μl sample applied D0-D4, single explant values"}, "[7]": {"conditions": "in comparison with the untreated sample"}}, "note": "Values joined by “and” are separate entries in the source; they are usually repeats but may differ in a detail not shown here. Equal entries are not always repeated."}
{"smiles": "OC[C@H]1O[C@H](OC[C@H]2OC(O)(CO)[C@@H](O)[C@@H]2O)[C@H](O)[C@@H](O)[C@@H]1O", "note": "(stereo partly drawn) [isomaltulose, α-D-glucopyranose-(1→6)-D-fructose (open, α- or (β-form) (isomaltulose)]", "values": [{"measurement": "Relative melanin concentration (%)", "setting": "[1]; 1 mM", "result": 65.0, "unit": "%"}, {"measurement": "Relative melanin concentration (%)", "setting": "[1]; 5 mM", "result": 58.1, "unit": "%"}, {"measurement": "melanin production", "setting": "[1]; cell culture tests with B16V mouse melanoma cells", "result": "reduces melanin production"}, {"measurement": "L", "setting": "[2]; [3]", "result": "62.89 and 62.96 and 61.62"}, {"measurement": "a", "setting": "[2]; [3]", "result": "2.75 and 2.19 and 3.28"}, {"measurement": "b", "setting": "[2]; [3]", "result": "15.88 and 18.71 and 18.43"}, {"measurement": "L", "setting": "[2]; [4]", "result": "63.09 and 64.04 and 62.97"}, {"measurement": "a", "setting": "[2]; [4]", "result": "3.72 and 2.1 and 3.32"}, {"measurement": "b", "setting": "[2]; [4]", "result": "16.05 and 17.73 and 17.92"}, {"measurement": "L", "setting": "[2]; [5]", "result": "63.79 and 62.89 and 63.61"}, {"measurement": "a", "setting": "[2]; [5]", "result": "2.57 and 2.67 and 3.26"}, {"measurement": "b", "setting": "[2]; [5]", "result": "14.33 and 17.15 and 16.3"}, {"measurement": "L", "setting": "[2]; [6]", "result": "65.69 and 59.72 and 60.71"}, {"measurement": "a", "setting": "[2]; [6]", "result": "2.41 and 3.44 and 3.59"}, {"measurement": "b", "setting": "[2]; [6]", "result": "12.35 and 11.35 and 11.57"}, {"measurement": "skin darkness (L values)", "setting": "[2]; [7]", "result": "darkening of the skin"}, {"measurement": "skin shade, red-brown shift (a value)", "setting": "[2]; [7]", "result": "more natural skin shade"}]}
{"smiles": "O=c1cc(CO)occ1O", "note": "[kojic acid, reference compound]", "values": [{"measurement": "Relative melanin concentration (%)", "setting": "[1]; 1 mM", "result": 71.4, "unit": "%"}]}
